pIC50: −log10 of the molar value.
Molecular target: T1, MALT-1 (Isoform 1) (Homo sapiens, UniProt Q9UDY8)
T1 construct: using recombinant MALT-1 (Isoform 1, aa-840) generated in house; made in house
T1 sequence (Q9UDY8 1-824): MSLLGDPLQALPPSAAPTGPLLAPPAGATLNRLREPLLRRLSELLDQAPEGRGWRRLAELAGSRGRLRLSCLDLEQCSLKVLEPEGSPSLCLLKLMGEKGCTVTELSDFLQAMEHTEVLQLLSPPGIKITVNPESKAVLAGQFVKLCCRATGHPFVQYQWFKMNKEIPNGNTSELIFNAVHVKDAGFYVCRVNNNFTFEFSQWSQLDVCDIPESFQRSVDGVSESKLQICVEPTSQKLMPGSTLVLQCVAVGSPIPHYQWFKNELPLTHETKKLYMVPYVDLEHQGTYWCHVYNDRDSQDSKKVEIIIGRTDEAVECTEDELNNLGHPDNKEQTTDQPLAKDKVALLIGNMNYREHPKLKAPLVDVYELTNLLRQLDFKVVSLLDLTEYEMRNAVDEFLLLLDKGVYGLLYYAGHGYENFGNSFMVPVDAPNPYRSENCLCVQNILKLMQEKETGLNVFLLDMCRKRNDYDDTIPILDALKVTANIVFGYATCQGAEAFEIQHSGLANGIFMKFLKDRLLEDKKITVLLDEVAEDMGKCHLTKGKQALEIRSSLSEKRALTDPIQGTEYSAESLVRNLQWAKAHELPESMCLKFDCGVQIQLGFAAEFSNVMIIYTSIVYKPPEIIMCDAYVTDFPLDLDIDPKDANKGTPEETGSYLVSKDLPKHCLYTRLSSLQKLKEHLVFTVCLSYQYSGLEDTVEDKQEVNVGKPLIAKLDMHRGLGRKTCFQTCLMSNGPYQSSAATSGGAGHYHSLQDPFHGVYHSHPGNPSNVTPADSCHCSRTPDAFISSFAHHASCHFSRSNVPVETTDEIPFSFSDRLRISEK
Experiment: MALT-1 (Isoform 1) enzyme fluorescent biochemical assay
Settings: for pIC50: dose-response, sigmoidal curve fit, reported as groups A, B, C; for inhibition at 1 µM / Percent Inhibition (1 μM): test compound 1 μM; for inhibition at 1 µM / Percent Inhibition (1 μM) / inhibition at 10 µM: recombinant MALT-1 1.5 nM; for inhibition at 1 µM: read-out: Percent Inhibition (1 μM); for inhibition at 10 µM: test compound 10 μM (stated in the cell), read-out: Percent Inhibition (10 μM)
Experimental: The potency of compounds to inhibit MALT-1 (Isoform 1) enzyme was tested in a Fluorescent assay using recombinant MALT-1 (Isoform 1, aa-840) generated in house. The assay buffer was 50 mM HEPES (pH 7.5), 100 mM NaCl, 10 mM DTT, 1 mM EDTA, 0.9 M sodium citrate, 0.01% CHAPS. 1.5 nM of MALT-1 enzyme was incubated with test compounds ([…]) (1% DMSO) in the presence of buffer for 30 minutes at 30° C. The protease reaction was initiated by adding […] of AC-LRSR-MAC (Peptide International, USA) substrate and incubated for 240 min. After 240 min incubation, fluorescence emission of the samples at 460 nm was measured at an excitation of 355 nm. The percent inhibition was calculated using the following formula: […]. IC50 values were determined by fitting the dose-response data to sigmoidal curve fitting equation using Graph pad prism software V8.
ND represents Not Determined.

Row | pIC50 | inhibition at 1 µM | Percent Inhibition (1 μM) | inhibition at 10 µM | Structure (SMILES)
1 | > 6.60 | 96% |  |  | CC(c1ccccc1)n1ncc(C(=O)Nc2cnc(-n3nccn3)c(C#N)c2)c1C(F)(F)F (racemic) [Compound 2, N-(5-cyano-6-(2H-1,2,3-triazol-2-yl)pyridin-3-yl)-1-(1-phenylethyl)-5-(trifluoromethyl)-1H-pyrazole-4-carboxamide]
2 | > 6.60 | 83% |  |  | CC(c1cccc(F)c1)n1ncc(C(=O)Nc2cnc(-n3nccn3)c(C#N)c2)c1C(F)(F)F (racemic) [Compound 3, N-(5-cyano-6-(2H-1,2,3-triazol-2-yl)pyridin-3-yl)-1-(1-(3-fluorophenyl)ethyl)-5-(trifluoromethyl)-1H-pyrazole-4-carboxamide]
3 | 6.00 to 6.60 | 77% |  |  | CC(c1cccc(F)c1)n1ncc(C(=O)Nc2cnc(-n3nccn3)c(Cl)c2)c1C(F)(F)F (racemic) [Compound 4, N-(5-chloro-6-(2H-1,2,3-triazol-2-yl)pyridin-3-yl)-1-(1-(3-fluorophenyl)ethyl)-5-(trifluoromethyl)-1H-pyrazole-4-carboxamide]
4 | 6.00 to 6.60 | 89% |  |  | CC(c1ccccc1)n1ncc(C(=O)Nc2cnc(-n3nccn3)c(Cl)c2)c1C(F)(F)F (racemic) [Compound 5, N-(5-chloro-6-(2H-1,2,3-triazol-2-yl)pyridin-3-yl)-1-(1-phenylethyl)-5-(trifluoromethyl)-1H-pyrazole-4-carboxamide]
5 | > 6.60 |  | 99% |  | CC(c1ccccc1)n1ncc(C(=O)Nc2cnc(-n3nccn3)c(C#N)c2)c1C(F)(F)F (single isomer, unassigned) [Compound 2a]
6 | 6.00 to 6.60 |  | 57% |  | CC(c1ccccc1)n1ncc(C(=O)Nc2cnc(-n3nccn3)c(C#N)c2)c1C(F)(F)F (single isomer, unassigned) [Compound 2b]
7 | 6.00 to 6.60 |  | 76% |  | CC(c1cccc(F)c1)n1ncc(C(=O)Nc2cnc(-n3nccn3)c(C#N)c2)c1C(F)(F)F (single isomer, unassigned) [Compound 3a]
8 | > 6.60 |  | 100% |  | CC(c1cccc(F)c1)n1ncc(C(=O)Nc2cnc(-n3nccn3)c(C#N)c2)c1C(F)(F)F (single isomer, unassigned) [Compound 3b]
9 | < 6.00 |  |  | 83% | CC(c1cccc(F)c1)n1ncc(C(=O)Nc2cnc(-n3nccn3)c(Cl)c2)c1C(F)(F)F (single isomer, unassigned) [Compound 4a]
10 | > 6.60 | 94% |  |  | CC(c1cccc(F)c1)n1ncc(C(=O)Nc2cnc(-n3nccn3)c(Cl)c2)c1C(F)(F)F (single isomer, unassigned) [Compound 4b]
11 | 6.00 to 6.60 |  | 78% |  | CC(c1ccccc1)n1ncc(C(=O)Nc2cnc(-n3nccn3)c(Cl)c2)c1C(F)(F)F (single isomer, unassigned) [Compound 5a]
12 | > 6.60 |  | 99% |  | CC(c1ccccc1)n1ncc(C(=O)Nc2cnc(-n3nccn3)c(Cl)c2)c1C(F)(F)F (single isomer, unassigned) [Compound 5b]
13 | > 6.60 | 100% |  |  | N#Cc1cc(NC(=O)c2cnn(Cc3cccc(F)c3Cl)c2C(F)(F)F)cnc1-n1nccn1 [Compound 1, 1-(2-chloro-3-fluorobenzyl)-N-(5-cyano-6-(2H-1,2,3-triazol-2-yl)pyridin-3-yl)-5-(trifluoromethyl)-1H-pyrazole-4-carboxamide]
14 | 6.00 to 6.60 | 81% |  |  | CCC(c1cccc(F)c1)n1ncc(C(=O)Nc2cnc(-n3nccn3)c(C#N)c2)c1C(F)(F)F (centres unmarked) [Compound 6, N-(5-cyano-6-(2H-1,2,3-triazol-2-yl)pyridin-3-y1)-1-(1-(3-fluorophenyl)propyl)-5-(trifluoromethyl)-1H-pyrazole-4-carboxamide]
15 | 6.00 to 6.60 | 88% |  |  | N#Cc1cc(NC(=O)c2cnn(Cc3ccccc3)c2C(F)(F)F)cnc1-n1nccn1 [Compound 7, 1-benzyl-N-(5-cyano-6-(2H-1,2,3-triazol-2-yl)pyridin-3-y1)-5-(trifluoromethyl)-1H-pyrazole-4-carboxamide]
16 | > 6.60 | 87% |  |  | N#Cc1cc(NC(=O)c2cnn(Cc3cccc(Cl)c3)c2C(F)(F)F)cnc1-n1nccn1 [Compound 8, 1-(3-chlorobenzyl)-N-(5-cyano-6-(2H-1,2,3-triazol-2-y1)pyridin-3-yl)-5-(trifluoromethyl)-1H-pyrazole-4-carboxamide]
17 | 6.00 to 6.60 | 55% |  |  | N#Cc1cc(NC(=O)c2cnn(Cc3ccc(Cl)cc3)c2C(F)(F)F)cnc1-n1nccn1 [Compound 9, 1-(4-chlorobenzyl)-N-(5-cyano-6-(2H-1,2,3-triazol-2-y1)pyridin-3-yl)-5-(trifluoromethyl)-1H-pyrazole-4-carboxamide]
18 | < 6.00 | 44% |  |  | N#Cc1cc(NC(=O)c2cnn(Cc3ccc(F)cc3)c2C(F)(F)F)cnc1-n1nccn1 [Compound 10, N-(5-cyano-6-(2H-1,2,3-triazol-2-yl)pyridin-3-yl)-1-(4-fluorobenzyl)-5-(trifluoromethyl)-1H-pyrazole-4-carboxamide]
19 | > 6.60 | 98% |  |  | N#Cc1cccc(Cn2ncc(C(=O)Nc3cnc(-n4nccn4)c(C#N)c3)c2C(F)(F)F)c1 [Compound 12, N-(5-cyano-6-(2H-1,2,3-triazol-2-yl)pyridin-3-y1)-1-(3-cyanobenzyl)-5-(trifluoromethyl)-1H-pyrazole-4-carboxamide]
20 | < 6.00 | 40% |  |  | N#Cc1cc(NC(=O)c2cnn(Cc3ccncc3)c2C(F)(F)F)cnc1-n1nccn1 [Compound 13, N-(5-cyano-6-(2H-1,2,3-triazol-2-yl)pyridin-3-yl)-1-(pyridin-4-ylmethyl)-5-(trifluoromethyl)-1H-pyrazole-4-carboxamide]
21 | < 6.00 | 67% |  |  | N#Cc1cc(NC(=O)c2cnn(Cc3cccc(C(F)(F)F)c3)c2C(F)(F)F)cnc1-n1nccn1 [Compound 14, N-(5-cyano-6-(2H-1,2,3-triazol-2-yl)pyridin-3-y1)-5-(trifluoromethyl)-1-(3-(trifluoromethyl)benzyl)-1H-pyrazole-4-carboxamide]
22 | > 6.60 | 99% |  |  | N#Cc1cc(NC(=O)c2cnn(Cc3cccc(F)c3)c2C(F)(F)F)cnc1-n1nccn1 [Compound 15, N-(5-cyano-6-(2H-1,2,3-triazol-2-yl)pyridin-3-y1)-1-(3-fluorobenzy1)-5-(trifluoromethyl)-1H-pyrazole-4-carboxamide]
23 |  |  |  | 48% | COc1cccc(Cn2ncc(C(=O)Nc3cnc(-n4nccn4)c(C#N)c3)c2C(F)(F)F)c1 [Compound 17, N-(5-cyano-6-(2H-1,2,3-triazol-2-yl)pyridin-3-y1)-1-(3-methoxybenzyl)-5-(trifluoromethyl)-1H-pyrazole-4-carboxamide]
24 | < 6.00 | 47% |  |  | N#Cc1cc(NC(=O)c2cnn(Cc3cccnc3)c2C(F)(F)F)cnc1-n1nccn1 [Compound 18, N-(5-cyano-6-(2H-1,2,3-triazol-2-yl)pyridin-3-yl)-1-(pyridin-3-ylmethyl)-5-(trifluoromethyl)-1H-pyrazole-4-carboxamide]
